In patent publication US20250288584A1, “COMBINATIONS COMPRISING POSITIVE ALLOSTERIC MODULATORS OR ORTHOSTERIC AGONISTS OF METABOTROPIC GLUTAMATERGIC RECEPTOR SUBTYPE 2 AND THEIR USE” (JANSSEN PHARMACEUTICA NV, priority 2014, published 2025):
Where two headings read alike, the source gives them in different places.

Molecular target: T1, human mGlu2 receptor (Homo sapiens, UniProt Q14416)
T1 construct: expressed in transfected cells; host or cells: CHO cells
Test: [35S]GTPγS binding assay, mGluR2 PAM
Assay type: biochemical
Details: for GTPγS-hmGluR2 PAM Emax / Emax: EC20 glutamate; for EC50 / GTPγS-hmGluR2 PAM pEC50: in presence of EC20 glutamate; for EC50: read-out: GTPγS-hmGluR2 PAM pEC50 (converted)
Experimental: The [^35S]GTPγS binding assay is a functional membrane-based assay used to study G-protein coupled receptor (GPCR) function whereby incorporation of a non-hydrolysable form of GTP, [^35S]GTPγS (guanosine 5′-triphosphate, labelled with […] ^35S), is measured.
Cells were then collected by scraping in PBS and cell suspension was centrifuged (10 min at 4000 RPM in benchtop centrifuge). Supernatant was discarded and pellet gently resuspended in 50 mM Tris-HCl, pH 7.4 by mixing with a vortex and pipetting up and down. The suspension was centrifuged at 16,000 RPM (Sorvall RC-5C plus rotor SS-34) for 10 minutes and the supernatant discarded. The pellet was homogenized in 5 mM Tris-HCl, pH 7.4 using an ultra-turrax homogenizer and centrifuged again (18,000 RPM, 20 min, 4° C.). The final pellet was resuspended in 50 mM Tris-HCl, pH 7.4 and stored at-80° C. in appropriate aliquots before use. Protein concentration was determined by the Bradford method (Bio-Rad, USA) with bovine serum albumin as standard.
Measurement of mGluR2 positive allosteric modulatory activity of test compounds was performed as follows. Test compounds and glutamate were diluted in assay buffer containing 10 mM HEPES acid, 10 mM HEPES salt, pH 7.4, 100 mM NaCl, 3 mM MgCl2 and 10 μM GDP. Human mGlu2 receptor-containing membranes were thawed on ice and diluted in assay buffer supplemented with 14 μg/ml saponin. Membranes were pre-incubated with compound alone or together with a predefined (˜EC20) concentration of glutamate (PAM assay) for 30 min at 30° C. After addition of [^35S] GTPγS (f.c. 0.1 nM), assay mixtures were shaken briefly and further incubated to allow [^35S] GTPγS incorporation on activation (30 minutes, 30° C.). Final assay mixtures contained 7 μg of membrane protein in 10 mM HEPES acid, 10 mM HEPES salt, pH 7.4, 100 mM NaCl, 3 mM MgCl2, 10 µM GDP and 2 μg/ml saponin. Total reaction volume was 200 μl. Reactions were terminated by rapid filtration through Unifilter-96 GF/B plates (Perkin Elmer, Massachusetts, USA) using a 96-well filtermate universal harvester. Filters were washed 6 times with ice-cold 10 mM NaH2PO4/10 mM Na2HPO4, pH 7.4. Filters were then air-dried, and 40 μl of liquid scintillation cocktail (Microscint-O) was added to each well. Membrane-bound radioactivity was counted in a Microplate Scintillation and Luminescence Counter from Perkin Elmer.
The concentration-response curves of representative compounds of the present invention-obtained in the presence of EC20 of mGluR2 agonist glutamate to determine positive allosteric modulation (PAM)—were generated using the Lexis software interface (developed at J&J). Data were calculated as % of the control glutamate response, defined as the maximal response that is generated upon addition of glutamate alone. Sigmoid concentration-response curves plotting these percentages versus the log concentration of the test compound were analyzed using non-linear regression analysis. The concentration producing half-maximal effect is then calculated as EC50. The pEC50 values below were calculated as the −log EC50, when the EC50 is expressed in M. Emax is defined as relative maximal effect (i.e. maximal % effect relative to the control glutamate response).

[1] = maximal % effect relative to control glutamate response, read-out: GTPγS-hmGluR2 PAM Emax

T1 sequence (Q14416 19-872): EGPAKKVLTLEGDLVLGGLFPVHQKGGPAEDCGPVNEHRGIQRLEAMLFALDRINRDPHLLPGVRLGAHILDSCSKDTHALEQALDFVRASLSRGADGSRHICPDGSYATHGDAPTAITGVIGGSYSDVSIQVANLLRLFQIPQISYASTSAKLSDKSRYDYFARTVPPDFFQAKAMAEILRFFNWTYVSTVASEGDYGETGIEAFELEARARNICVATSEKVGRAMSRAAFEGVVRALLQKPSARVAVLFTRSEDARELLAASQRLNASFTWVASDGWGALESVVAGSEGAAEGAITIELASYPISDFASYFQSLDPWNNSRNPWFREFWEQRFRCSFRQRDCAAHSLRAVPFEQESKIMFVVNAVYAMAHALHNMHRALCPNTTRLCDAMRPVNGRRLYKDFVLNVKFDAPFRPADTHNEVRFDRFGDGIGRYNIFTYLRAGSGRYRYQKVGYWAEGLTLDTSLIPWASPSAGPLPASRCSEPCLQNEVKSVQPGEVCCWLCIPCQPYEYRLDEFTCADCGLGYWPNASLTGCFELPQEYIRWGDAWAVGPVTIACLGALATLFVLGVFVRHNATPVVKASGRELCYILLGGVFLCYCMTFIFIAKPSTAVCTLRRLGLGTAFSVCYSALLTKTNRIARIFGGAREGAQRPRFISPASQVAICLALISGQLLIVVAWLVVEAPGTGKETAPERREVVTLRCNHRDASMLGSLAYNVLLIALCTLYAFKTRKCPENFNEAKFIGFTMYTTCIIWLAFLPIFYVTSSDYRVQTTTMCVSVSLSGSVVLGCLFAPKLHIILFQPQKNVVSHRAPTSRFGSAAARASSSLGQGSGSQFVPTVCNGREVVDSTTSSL

| Structure (SMILES) | Emax [1] [%] | also measured |
| --- | --- | --- |
| CC(Oc1ccc(F)cc1)c1ccn2c(CC3CC3)nnc2c1C(F)(F)F (single isomer, unassigned) [Co. No. 2-b, 3-(Cyclopropylmethyl)-7-[(1*R)-1-(4-fluorophenoxy)ethyl]-8-(trifluoromethyl)[1,2,4]triazolo[4,3-a]pyridine] |  | GTPγS-hmGluR2 PAM Emax (maximal % effect relative to control glutamate response, listed as 2-b): 228% |
| CC(Oc1ccc(F)cc1)c1ccn2c(CC3CC3)nnc2c1C(F)(F)F (single isomer, unassigned) [Co. No. 3-b, 3-(Cyclopropylmethyl)-7-[(1*S)-1-(4-fluorophenoxy)ethyl]-8-(trifluoromethyl)[1,2,4]triazolo[4,3-a]pyridine] |  | GTPγS-hmGluR2 PAM Emax (maximal % effect relative to control glutamate response, listed as 3-b): 187% |
| CCOCc1nnc2c(C(F)(F)F)c(C(C)Oc3ccc(F)cc3F)ccn12 (single isomer, unassigned) [Co. No. 20-b, 7-[(1*R)-1-(2,4-Difluorophenoxy)ethyl]-3-(ethoxymethyl)-8-(trifluoromethyl)[1,2,4]triazolo[4,3-a]pyridine] |  | GTPγS-hmGluR2 PAM Emax (maximal % effect relative to control glutamate response, listed as 20-b): 332% |
| CCOCc1nnc2c(C(F)(F)F)c(C(C)Oc3ccc(F)cc3F)ccn12 (single isomer, unassigned) [Co. No. 21-b, 7-[(1*S)-1-(2,4-Difluorophenoxy)ethyl]-3-(ethoxymethyl)-8-(trifluoromethyl)[1,2,4]triazolo[4,3-a]pyridine] |  | GTPγS-hmGluR2 PAM Emax (maximal % effect relative to control glutamate response, listed as 21-b): 102% |
| CCOCc1nnc2c(C(F)(F)F)c(C(C)Oc3c(F)cc(F)cc3F)ccn12 (single isomer, unassigned) [Co. No. 22-b, 3-(Ethoxymethyl)-8-(trifluoromethyl)-7-[(1*R)-1-(2,4,6-trifluorophenoxy)ethyl][1,2,4]triazolo[4,3-a]pyridine] |  | GTPγS-hmGluR2 PAM Emax (maximal % effect relative to control glutamate response, listed as 22-b): 325% |
| CCOCc1nnc2c(C(F)(F)F)c(C(C)Oc3c(F)cc(F)cc3F)ccn12 (single isomer, unassigned) [Co. No. 23-b, 3-(Ethoxymethyl)-8-(trifluoromethyl)-7-[(1*S)-1-(2,4,6-trifluorophenoxy)ethyl][1,2,4]triazolo[4,3-a]pyridine] |  | GTPγS-hmGluR2 PAM Emax (maximal % effect relative to control glutamate response, listed as 23-b): 167% |
| CCCc1nnc2c(C(F)(F)F)c(C(C)Oc3ccc(F)cc3F)ccn12 (single isomer, unassigned) [Co. No. 31-b] |  | EC50: 89.1 nM; GTPγS-hmGluR2 PAM Emax (maximal % effect relative to control glutamate response, listed as 31-b): 251% |
| CCCc1nnc2c(C(F)(F)F)c(C(C)Oc3ccc(F)cc3F)ccn12 (single isomer, unassigned) [Co. No. 32-b] |  | EC50: 1950 nM; GTPγS-hmGluR2 PAM Emax (maximal % effect relative to control glutamate response, listed as 32-b): 116% |
| O=c1c(Cl)c(N2CCC(c3ccccc3)CC2)ccn1CC1CC1 [Co. No. 1-a] | 314 | EC50: 166 nM |
| CC(Oc1ccc(F)cc1)c1ccn2c(CC3CC3)nnc2c1C(F)(F)F (stereo not shown) [Co. No. 1-b, 3-(Cyclopropylmethyl)-7-[1-(4-fluorophenoxy)ethyl]-8-(trifluoromethyl)[1,2,4]triazolo-[4,3-a]pyridine] | 296 |  |
| O=c1c(Br)c(N2CCC(c3ccccc3)CC2)ccn1CC1CC1 [Co. No. 3-a] | 231 |  |
| CC1(c2ccc(F)cc2)CCN(Cc2ccn3c(CC4CC4)nnc3c2C(F)(F)F)CC1 [Co. No. 3] |  | Emax (read-out: GTPγS-hmGluR2 PAM Emax, maximal % effect relative to control glutamate response): 212% |
| O=c1c(C(F)(F)F)c(N2CCC(c3ccccc3)CC2)ccn1CC1CC1 [Co. No. 4-a] | 269 | GTPγS-hmGluR2 PAM pEC50: 6.6 |
| CC(Oc1ccc(F)cc1F)c1ccn2c(CC3CC3)nnc2c1C(F)(F)F (stereo not shown) [Co. No. 4-b, 3-(Cyclopropylmethyl)-7-[1-(2,4-difluorophenoxy)ethyl]-8-(trifluoromethyl)[1,2,4]triazolo-[4,3-a]pyridine] | 329 |  |
| C[C@@H](Oc1ccc(F)cc1F)c1ccn2c(CC3CC3)nnc2c1C(F)(F)F [Co. No. 5-b, 3-(Cyclopropylmethyl)-7-[(1R)-1-(2,4-difluorophenoxy)ethyl]-8-(trifluoromethyl)[1,2,4]triazolo[4,3-a]pyridine] | 141 |  |
| Fc1ccc(N2CCN(Cc3ccn4c(CC5CC5)nnc4c3Cl)CC2)c(F)c1 [Co. No. 5] | 231 | EC50: 550 nM |
| N#CC1(c2ccccc2)CCN(c2ccn(CC3CC3)c(=O)c2Cl)CC1 [Co. No. 6-a] | 255 |  |
| CCCCn1ccc(N2CCC(F)(c3ccccc3)CC2)c(Cl)c1=O [Co. No. 7-a] | 291 | EC50: 229 nM |
| C[C@H](Oc1cc(F)cc(F)c1)c1ccn2c(CC3CC3)nnc2c1C(F)(F)F [Co. No. 7-b, 3-(Cyclopropylmethyl)-7-[(1S)-1-(3,5-difluorophenoxy)ethyl]-8-(trifluoromethyl)[1,2,4]triazolo[4,3-a]pyridine] | 292 |  |
| CC1(C)OC2(CCN(c3ccn4c(CC5CC5)nnc4c3C(F)(F)F)CC2)c2ccc(F)cc21 [Co. No. 7] | 263 |  |
| O=c1c(C2CC2)c(N2CCC(c3ccccc3)CC2)ccn1CC1CC1 [Co. No. 8-a] | 157 |  |
| C[C@H](Oc1ccc(F)c(F)c1)c1ccn2c(CC3CC3)nnc2c1C(F)(F)F [Co. No. 8-b, 3-(Cyclopropylmethyl)-7-[(1S)-1-(3,4-difluorophenoxy)ethyl]-8-(trifluoromethyl)[1,2,4]triazolo[4,3-a]pyridine] | 244 |  |

More lines, main results first:

| Emax [1] [%] | Structure (SMILES) | also measured |
| --- | --- | --- |
| 213 | CC(Oc1ccc(F)cc1F)c1ccn2c(CC3CCC3)nnc2c1C(F)(F)F (single isomer, unassigned) [Co. No. 18-b, 3-(Cyclobutylmethyl)-7-[(1*S)-1-(2,4-difluorophenoxy)ethyl]-8-(trifluoromethyl)[1,2,4]triazolo[4,3-a]pyridine] | EC50: 575 nM |
| 360 | FC(F)(F)c1c(N2CCN(c3ncccn3)CC2)ccn2c(CC3CC3)nnc12 [Co. No. 8] | EC50: 186 nM |
| 222 | CC(C)(O)c1ccc(C2CCN(c3ccn(CC4CC4)c(=O)c3C3CC3)CC2)cc1 [Co. No. 9-a] | EC50: 257 nM |
| 260 | C[C@H](Oc1cccc(F)c1F)c1ccn2c(CC3CC3)nnc2c1C(F)(F)F [Co. No. 9-b, 3-(Cyclopropylmethyl)-7-[(1S)-1-(2,3-difluorophenoxy)ethyl]-8-(trifluoromethyl)[1,2,4]triazolo[4,3-a]pyridine] |  |
| 462 | COc1cnc(N2CCN(c3ccn4c(CC5CC5)nnc4c3C(F)(F)F)CC2)nc1 [Co. No. 9] | EC50: 126 nM |
| 290 | O=c1c(Cl)c(N2CCC(c3ccccc3)CC2)ccn1CCC1CC1 [Co. No. 10-a] | GTPγS-hmGluR2 PAM pEC50: 6.88 |
| 218 | C[C@H](Oc1cc(F)ccc1F)c1ccn2c(CC3CC3)nnc2c1C(F)(F)F [Co. No. 10-b, 3-(Cyclopropylmethyl)-7-[(1S)-1-(2,5-difluorophenoxy)ethyl]-8-(trifluoromethyl)[1,2,4]triazolo[4,3-a]pyridine] |  |
| 357 | Fc1ccc(C2CCN(c3ccn4c(CC5CC5)nnc4c3Cl)CC2)c(F)c1 [Co. No. 10] |  |
| 249 | CCCCCn1ccc(N2CCC(c3ccccc3)CC2)c(Cl)c1=O [Co. No. 11-a] | GTPγS-hmGluR2 PAM pEC50: 7.11 |
| 239 | C[C@H](Oc1c(F)cccc1F)c1ccn2c(CC3CC3)nnc2c1C(F)(F)F [Co. No. 11-b, 3-(Cyclopropylmethyl)-7-[(1S)-1-(2,6-difluorophenoxy)ethyl]-8-(trifluoromethyl)[1,2,4]triazolo[4,3-a]pyridine] |  |
| 242 | O=c1c(Cl)c(N2CCC(c3ccccc3F)CC2)ccn1CC1CC1 [Co. No. 12-a] | GTPγS-hmGluR2 PAM pEC50: 7.03 |
